Structures can show the parent of a compound that is named as a salt.
What was measured:
[1] = cited from earlier work
[2] = In vivo release test, DOX concentration in blood after subcutaneous administration; set-up: species or system Male Sprague Dawley rats; conditions: rat, 1 mg DOX in normal saline subcutaneously, ~20 mL blood in a rat
Method: Male Sprague Dawley rats (8 weeks, average weight 250 g) were stabilized for 1 week with free access to food and water. Microcontainers loaded with DOX were subcutaneously administered into the rats at a level of 3.7 mg/Kg (10 mg microspheres containing 1 mg DOX were freshly dispersed in 0.5 mL of normal saline solution for each rat). […] The blood samples were separated by centrifugation at 2000 g at 4° C. for 10 min and the obtained plasma samples were then stored at −20° C. prior to analysis. Just before the DOX extraction, the plasma samples were thawed followed by adding 3 ml of 70% ethanol and 30% 0.45 M HCl aqueous solution by volume. The obtained suspensions were mixed for 30 s to form gels. These gels were first stored at 4° C. for 24 hours in dark, and then centrifuged at 10,000 g for 15 min. The supernatants were transferred into glass cuvettes and allowed to warm to room temperature for the determination of DOX concentration by a fluorescence spectrophotometer.

Row | Structure (SMILES) | stability versus pH ([1]; pH of more than 6.5) | DOX concentration level that can be reached in blood [2] [µg/mL] | solubility in water ([1]; water) [µg/mL]
1 | COc1cccc2c1C(=O)c1c(O)c3c(c(O)c1C2=O)C[C@@](O)(C(=O)CO)C[C@@H]3O[C@H]1C[C@H](N)[C@H](O)[C@H](C)O1 [Doxorubicin, doxorubicin] | unstable |  | 
2 | COc1cccc2c1C(=O)c1c(O)c3c(c(O)c1C2=O)C[C@@](O)(C(=O)CO)C[C@@H]3O[C@H]1C[C@H](N)[C@H](O)[C@H](C)O1 [DOX, Doxorubicin hydrochloride] |  | 50 | 10000
